Experiments:
blackgrass = assay: Test Example 5: herbicidal effect by foliage application, plastic box (Table 20, symbol J); format: in vivo, blackgrass (Alopecurus myosuroides); details: foliage application, 320 g/ha, three weeks after application
Summary of the method: (§1)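 Sow seeds spot-wise in sterilized diluvial soil; cover with ~1.5 cm soil. Grow 14 days in greenhouse, 25° C. to 30° C. Spray foliage with emulsion diluted to predetermined amount. Rate effect after 3 weeks.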

southern crabgrass = assay: Test Example 5: herbicidal effect by foliage application, plastic box (Table 20, symbol F); format: in vivo, southern crabgrass (Digitaria ciliaris); details: foliage application, 320 g/ha, three weeks after application
Summary of the method: as §1

Italian ryegrass = assay: Test Example 5: herbicidal effect by foliage application, plastic box (Table 20, symbol K); format: in vivo, Italian ryegrass (Lolium multiflorum); details: foliage application, 320 g/ha, three weeks after application
Summary of the method: as §1

wild oat = assay: Test Example 5: herbicidal effect by foliage application, plastic box (Table 20, symbol I); format: in vivo, wild oat (Avena fatua); details: foliage application, 320 g/ha, three weeks after application
Summary of the method: as §1

redroot pigweed = assay: Test Example 5: herbicidal effect by foliage application, plastic box (Table 20, symbol N); format: in vivo, redroot pigweed (Amaranthus retroflexus); details: foliage application, 320 g/ha, three weeks after application
Summary of the method: as §1

velvetleaf = assay: Test Example 5: herbicidal effect by foliage application, plastic box (Table 20, symbol M); format: in vivo, velvetleaf (Abutilon theophrasti); details: foliage application, 320 g/ha, three weeks after application
Summary of the method: as §1

Chinese sprangletop = assay: Test Example 3: herbicidal effect by foliage application, Wagner pot (Table 18, symbol D); format: in vivo, chinese sprangletop (Leptochloa chinensis); details: amount of applied herbicide 320 g/ha
Summary of the method: (§2)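 Plants were sown in alluvial soil held under 0.1–0.5 cm standing water and grown 14 days in a greenhouse at 25–30 °C. An emulsifiable formulation, water-diluted to the set dose, was then sprayed onto the foliage, and effects were scored three weeks later using previously defined criteria.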

green foxtail = assay: Test Example 5: herbicidal effect by foliage application, plastic box (Table 20, symbol G); format: in vivo, green foxtail (Setaria viridis); details: foliage application, 320 g/ha, three weeks after application
Summary of the method: as §1

rice flat sedge = assay: Test Example 3: herbicidal effect by foliage application, Wagner pot (Table 18, symbol E); format: in vivo, rice flat sedge (Cyperus iria); details: amount of applied herbicide 320 g/ha
Summary of the method: as §2

persian speedwell = assay: Test Example 5: herbicidal effect by foliage application, plastic box (Table 20, symbol R); format: in vivo, Persian speedwell (Veronica persica); details: foliage application, 320 g/ha, three weeks after application
Summary of the method: as §1

barnyard grass [1] = assay: Test Example 3: herbicidal effect by foliage application, Wagner pot (Table 18, symbol H); format: in vivo, barnyard grass (Echinochloa crus-galli); details: amount of applied herbicide 320 g/ha
Summary of the method: as §2

chickweed = assay: Test Example 5: herbicidal effect by foliage application, plastic box (Table 20, symbol P); format: in vivo, common chickweed (Stellaria media); details: foliage application, 320 g/ha, three weeks after application
Summary of the method: as §1

lambsquarters = assay: Test Example 5: herbicidal effect by foliage application, plastic box (Table 20, symbol O); format: in vivo, lambsquarters (Chenopodium album); details: foliage application, 320 g/ha, three weeks after application
Summary of the method: as §1

barnyard grass [2] = assay: Test Example 5: herbicidal effect by foliage application, plastic box (Table 20, symbol H); format: in vivo, barnyard grass (Echinochloa crus-galli); details: foliage application, 320 g/ha, three weeks after application
Summary of the method: as §1

windgrass = assay: Test Example 5: herbicidal effect by foliage application, plastic box (Table 20, symbol L); format: in vivo, windgrass (Apera spica-venti); details: foliage application, 320 g/ha, three weeks after application
Summary of the method: as §1

| Structure (SMILES) | J: blackgrass, herbicidal effect grade (blackgrass) | F: southern crabgrass, herbicidal effect grade (southern crabgrass) | K: Italian ryegrass, herbicidal effect grade (Italian ryegrass) | I: wild oat, herbicidal effect grade (wild oat) | N: redroot pigweed, herbicidal effect grade (redroot pigweed) | M: velvetleaf, herbicidal effect grade (velvetleaf) | herbicidal effect on D: Chinese sprangletop (Chinese sprangletop) | G: green foxtail, herbicidal effect grade (green foxtail) | herbicidal effect on E: rice flat sedge (rice flat sedge) | R: persian speedwell, herbicidal effect grade (persian speedwell) | herbicidal effect on H: barnyard grass (barnyard grass [1]) | P: chickweed, herbicidal effect grade (chickweed) | O: lambsquarters, herbicidal effect grade (lambsquarters) | H: barnyard grass, herbicidal effect grade (barnyard grass [2]) | L: windgrass, herbicidal effect grade (windgrass) |
| --- | --- | --- | --- | --- | --- | --- | --- | --- | --- | --- | --- | --- | --- | --- | --- |
| Cc1nn(Cc2ccccc2)c(=O)c(-c2c(-c3ccc(C(F)(F)F)cc3)sc3ccc(F)cc23)c1O [2-436] | 0 (Herbicidal rate of 5% or less (almost no effect)) | 0 (Herbicidal rate of 5% or less (almost no effect)) | 0 (Herbicidal rate of 5% or less (almost no effect)) | 0 (Herbicidal rate of 5% or less (almost no effect)) | 3 (Herbicidal rate of 40% or more and less than 70%) | 0 (Herbicidal rate of 5% or less (almost no effect)) | 0 (Herbicidal rate of 5% or less (almost no effect)) | 0 (Herbicidal rate of 5% or less (almost no effect)) | 2 (Herbicidal rate of 20% or more and less than 40%) | 0 (Herbicidal rate of 5% or less (almost no effect)) | 3 (Herbicidal rate of 40% or more and less than 70%) | 0 (Herbicidal rate of 5% or less (almost no effect)) | 0 (Herbicidal rate of 5% or less (almost no effect)) | 0 (Herbicidal rate of 5% or less (almost no effect)) | 0 (Herbicidal rate of 5% or less (almost no effect)) |
| COCCOCOc1c(C)nn(C)c(=O)c1-c1c(-c2ccc(Oc3ncc(C(F)(F)F)cc3Cl)cc2)sc2ccc(F)cc12 [2-468] | 0 (Herbicidal rate of 5% or less (almost no effect)) | 0 (Herbicidal rate of 5% or less (almost no effect)) | 0 (Herbicidal rate of 5% or less (almost no effect)) | 0 (Herbicidal rate of 5% or less (almost no effect)) | 1 (Herbicidal rate of 5% or more and less than 20%) | 0 (Herbicidal rate of 5% or less (almost no effect)) | 2 (Herbicidal rate of 20% or more and less than 40%) | 0 (Herbicidal rate of 5% or less (almost no effect)) | 2 (Herbicidal rate of 20% or more and less than 40%) | 3 (Herbicidal rate of 40% or more and less than 70%) | 3 (Herbicidal rate of 40% or more and less than 70%) | 0 (Herbicidal rate of 5% or less (almost no effect)) | 2 (Herbicidal rate of 20% or more and less than 40%) | 5 (Herbicidal rate of 90% or more (almost completely withered)) | 0 (Herbicidal rate of 5% or less (almost no effect)) |
| Cc1nn(C)c(=O)c(-c2c(-c3ccc(Cl)cc3)sc3cc(F)ccc23)c1O [3-015] | 1 (Herbicidal rate of 5% or more and less than 20%) | 0 (Herbicidal rate of 5% or less (almost no effect)) | 0 (Herbicidal rate of 5% or less (almost no effect)) | 0 (Herbicidal rate of 5% or less (almost no effect)) | 2 (Herbicidal rate of 20% or more and less than 40%) | 0 (Herbicidal rate of 5% or less (almost no effect)) | 3 (Herbicidal rate of 40% or more and less than 70%) | 0 (Herbicidal rate of 5% or less (almost no effect)) | 3 (Herbicidal rate of 40% or more and less than 70%) | 2 (Herbicidal rate of 20% or more and less than 40%) | 3 (Herbicidal rate of 40% or more and less than 70%) | 4 (Herbicidal rate of 70% or more and less than 90%) | 0 (Herbicidal rate of 5% or less (almost no effect)) | 0 (Herbicidal rate of 5% or less (almost no effect)) | 5 (Herbicidal rate of 90% or more (almost completely withered)) |
